Molecular target: T1, IRAK4 (Homo sapiens, UniProt Q9NWZ3)
T1 construct: C-terminal HiBiT-tagged Jurkat cells (polyclonal cell line or clone 8D5); endogenous in cells; host or cells: Jurkat cells (polyclonal cell line or clone 8D5), HiBiT-tagged
T1 sequence (Q9NWZ3 1-460): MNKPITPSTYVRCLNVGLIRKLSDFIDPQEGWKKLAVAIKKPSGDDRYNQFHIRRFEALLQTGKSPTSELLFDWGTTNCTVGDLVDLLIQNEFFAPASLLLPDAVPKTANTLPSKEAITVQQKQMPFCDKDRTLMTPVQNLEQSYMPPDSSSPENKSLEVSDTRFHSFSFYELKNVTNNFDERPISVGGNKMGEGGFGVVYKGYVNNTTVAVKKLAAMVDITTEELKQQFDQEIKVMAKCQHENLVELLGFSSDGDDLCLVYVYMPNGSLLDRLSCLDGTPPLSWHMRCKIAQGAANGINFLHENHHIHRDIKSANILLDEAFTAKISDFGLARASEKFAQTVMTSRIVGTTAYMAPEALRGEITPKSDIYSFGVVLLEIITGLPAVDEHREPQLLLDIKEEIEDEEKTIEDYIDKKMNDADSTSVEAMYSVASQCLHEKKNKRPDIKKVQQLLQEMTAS
Test: IRAK4 Degradation HiBit Assay
Format: cell-based
Settings: C-terminal HiBiT-tagged Jurkat cells, 4 hrs incubation; for DC50: % IRAK4 remaining, four-parameter fit (IC50 used as DC50); for Dmax: from fit of % IRAK4 remaining, read-out: Dmax
In short: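 Jurkat cells carrying C-terminal HiBiT-tagged IRAK4 (polyclonal or clone 8D5) exposed to compound, 10 μM–0.1 nM final over 11 points, for 4 h at 32 °C. Remaining IRAK4 measured by lytic HiBiT/LgBiT luminescence relative to DMSO. DC50 and Dmax taken from four-parameter variable-slope fits.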

SMILES	DC50 [nM]	Dmax [%]
N#Cc1cnn2c(-c3cc(NC4CCOCC4)c(-c4nnc(N5CCN(CC6CCN(c7ccc(C8CCC(=O)NC8=O)c(F)c7)CC6)CC5)s4)cn3)ccc2c1 (racemic) [Example 3, rac-7-[5-(5-{4-[(1-{4-[(3R)-2,6-dioxopiperidin-3-yl]-3-fluorophenyl}piperidin-4-yl)methyl]piperazin-1-yl}-1,3,4-thiadiazol-2-yl)-4-[(oxan-4-yl)amino]pyridin-2-yl]pyrrolo[1,2-b]pyridazine-3-carbonitrile]	55	93
N#Cc1cnn2c(-c3cc(NC4CCOCC4)c(-c4nnc(N5CC6CCC(C5)N6CC5CCN(c6ccc([C@@H]7CCC(=O)NC7=O)cc6)CC5)s4)cn3)ccc2c1 (single isomer, unassigned) [Example 109]	52	94
CC(C)Nc1cc(-c2ccc3cc(C#N)cnn23)ncc1-c1nnc(N2CC3CCC(C2)N3CC2CCN(c3ccc([C@H]4CCC(=O)NC4=O)cc3)CC2)s1 (racemic) [Example 72, rac-7-[5-(5-{8-[(1-{4-[(3R)-2,6-dioxopiperidin-3-yl]phenyl}piperidin-4-yl)methyl]-3,8-diazabicyclo[3.2.1]octan-3-yl}-1,3,4-thiadiazol-2-yl)-4-[(propan-2-yl)amino]pyridin-2-yl]pyrrolo[1,2-b]pyridazine-3-carbonitrile]	45	60
CNc1cc(-c2ccc3cc(C#N)cnn23)ncc1-c1nnc([C@H]2CC[C@H](C(=O)N3CCN(c4ccc([C@@H]5CCC(=O)NC5=O)cn4)CC3)CC2)s1 (racemic) [Example 39, 7-[4-(methylamino)-5-{5-[(1r,4r)-4-(4-{5-[(3RS)-2,6-dioxopiperidin-3-yl]pyridin-2-yl}piperazine-1-carbonyl)cyclohexyl]-1,3,4-thiadiazol-2-yl}pyridin-2-yl]pyrrolo[1,2-b]pyridazine-3-carbonitrile]	19	108
COC[C@@H](C)Nc1cc(-c2ccc3cc(C#N)cnn23)ncc1-c1nnc(N2CC3CCC(C2)N3CC2CCN(c3ccc(C4CCC(=O)NC4=O)cn3)CC2)s1 (mixture of isomers) [Example 114, 7-[5-(5-{8-[(1-{5-[(3RS)-2,6-dioxopiperidin-3-yl]pyridin-2-yl}piperidin-4-yl)methyl]-3,8-diazabicyclo[3.2.1]octan-3-yl}-1,3,4-thiadiazol-2-yl)-4-{[(2R)-1-methoxypropan-2-yl]amino}pyridin-2-yl]pyrrolo[1,2-b]pyridazine-3-carbonitrile]	100	110

The remaining lines, values ahead:

DC50 [nM]	Dmax [%]	SMILES
49	110	CC(C)Nc1cc(-c2ccc3cc(C#N)cnn23)ncc1-c1nnc(N2CCN(CC3CCN(c4ccc([C@@H]5CCC(=O)NC5=O)cn4)CC3)CC2)s1 (single isomer, unassigned) [Example 118]
69	90	N#Cc1cnn2c(-c3cc(NC4CCOCC4)c(-c4nnc(N5CCN(CC6CCN(c7ccc(C8CCC(=O)NC8=O)cc7)CC6)CC5)s4)cn3)ccc2c1 (racemic) [Example 9, rac-7-[5-(5-{4-[(1-{4-[(3R)-2,6-dioxopiperidin-3-yl]phenyl}piperidin-4-yl)methyl]piperazin-1-yl}-1,3,4-thiadiazol-2-yl)-4-[(oxan-4-yl)amino]pyridin-2-yl]pyrrolo[1,2-b]pyridazine-3-carbonitrile]
1000	84	CCNc1cc(-c2ccc3cc(C#N)cnn23)ncc1-c1nnc(N2CCN(CC3CCN(c4ccc(C5CCC(=O)NC5=O)cn4)CC3)CC2)o1 (racemic) [Example 69, rac-7-[5-(5-{4-[(1-{5-[(3R)-2,6-dioxopiperidin-3-yl]pyridin-2-yl}piperidin-4-yl)methyl]piperazin-1-yl}-1,3,4-oxadiazol-2-yl)-4-(ethylamino)pyridin-2-yl]pyrrolo[1,2-b]pyridazine-3-carbonitrile]
239	105	N#Cc1cnn2c(-c3cc(NC4CCC4)c(-c4nnc(N5CCN(CC6CCN(c7ccc(C8CCC(=O)NC8=O)cn7)CC6)CC5)s4)cn3)ccc2c1 (racemic) [Example 113, rac-7-[4-(cyclobutylamino)-5-(5-{4-[(1-{5-[(3R)-2,6-dioxopiperidin-3-yl]pyridin-2-yl}piperidin-4-yl)methyl]piperazin-1-yl}-1,3,4-thiadiazol-2-yl)pyridin-2-yl]pyrrolo[1,2-b]pyridazine-3-carbonitrile]

— patent publication US12570662B2, “Substituted pyrrolo[1,2-b]pyridazines as bifunctional degraders of interleukin-1 receptor-associated kinases” (Nurix Therapeutics, Inc., priority 2021, dated 2026)
